Assay results: US5089623A, “Certain imidate insecticides” (Imperial Chemical Industries Plc, priority 1990, dated 1992)

How the values were obtained:
Assay type in all cases: in vivo
[1] = tested on: Aster Leafhopper [Macrosteles fascifrens (Stal)]; assay: Aster leafhopper test (LH); settings: adults/nymphs, 48 hours, percent in solution
[2] = tested on: Maize weevil [Sitophilus Zeamais (Motschulsky)]; assay: Maize weevil test (MW); settings: adult weevils, treated corn seeds, 48 hours, percent in solution
Method in brief: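 Adult weevils (10) were placed with four corn seeds that had been dipped 2-3 s in compound dissolved in 50:50 acetone:water, then dried, and held at about 25° C. Mortality was scored at 48 h. LC50 was taken from dosage-mortality curves and expressed as percent compound in solution, from a 0.01% top concentration.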

[3] = tested on: Tobacco Budworm [Heliothis virescens (Fabricius)] eggs; assay: Tobacco budworm egg test (TBW-E); settings: percent in solution
[4] = tested on: Housefly [Musca domestica]; assay: Housefly insecticidal test (HF); settings: per 25 female houseflies, 48 hours
[5] = tested on: Cabbage Looper [Trichoplusia ni (Hubner)]; assay: Cabbage looper test (CL); settings: second-instar larvae, 3-5 days, percent in solution

SMILES	LC50 LH [1] [%]	LC50 MW [2] [%]	LC50 TBW E [3] [%]	LC50 HF [4] [µg]	LC50 CL [5] [%]
C=C(C)C(=Nc1ccc(Cl)cc1)OCc1cccc(Oc2ccccc2)c1 [Compound 6]	> 0.05	> 0.01	0.015	17	0.02
CC(C)CC(=Nc1cc(Cl)cc(Cl)c1)OCc1cccc(Oc2ccccc2)c1 [Compound 10]	> 0.05		> 0.1	> 100	0.01
CCC(=Nc1ccc(Cl)cc1)OCc1cccc(Oc2ccccc2)c1 [Compound 11]	> 0.05	> 0.01	> 0.1	6	0.025
CC(C)C(=Nc1cc(Cl)ccc1Cl)OCc1cccc(Oc2ccccc2)c1 [Compound 13]	> 0.05	> 0.01	> 0.1	> 100	0.014
CC(C)C(=Nc1cc(Cl)cc(Cl)c1)OCc1cccc(Oc2ccccc2)c1 [Compound 16]	0.0005		0.04	20	0.004
CC(C)C(=Nc1cc(Cl)c(Cl)c(Cl)c1)OCc1cccc(Oc2ccccc2)c1 [Compound 20]	0.003		< 0.1	64	0.0025
Fc1ccc(N=C(OCc2cccc(Oc3ccccc3)c2)C(Cl)=C(Cl)Cl)cc1 [Compound 49]	> 0.05		> 0.05	> 100	0.007
CC(C)C(=Nc1c(F)c(F)cc(F)c1F)OCc1cccc(Oc2ccccc2)c1 [Compound 57]	0.0005		0.1	> 100	0.004
COc1ccc(OC)c(N=C(OCc2cccc(Oc3ccccc3)c2)C(C)C)c1 [Compound 69]	> 0.05		> 0.1	> 100	0.09
CC(C)C(=Nc1ccc(OC(F)(F)F)cc1)OCc1cccc(Oc2ccccc2)c1 [Compound 70]	> 0.05		0.01	< 100	< 0.1
CC(C)C(=Nc1ccc(C(F)(F)F)c(Cl)c1)OCc1cccc(Oc2ccccc2)c1 [Compound 83]	> 0.05		> 0.1	> 100	0.007
Cc1ccc(N=C(OCc2cccc(Oc3ccccc3)c2)C(C)C)cc1Cl [Compound 90]	0.001		0.016	> 100	> 0.1
COc1c(Cl)cc(N=C(OCc2cccc(Oc3ccccc3)c2)C(C)C)cc1Cl [Compound 91]	0.003		> 0.01	37	0.002
CC(C)C(=Nc1c(Cl)cc([N+](=O)[O-])cc1Cl)OCc1cccc(Oc2ccccc2)c1 [Compound 92]	> 0.05		> 0.1	> 100	0.015
Clc1ccc(N=C(OCc2cccc(Oc3ccccc3)c2)C(Cl)Cl)c2ccccc12 [Compound 98]	> 0.05		0.1	> 100	0.016
Cc1c(Cl)cc(N=C(OCc2cccc(Oc3ccccc3)c2)C(C)C)cc1Cl [Compound 101]	0.0008		> 0.1	81	0.0045
CCOC(=O)c1cc(N=C(OCc2cccc(Oc3ccccc3)c2)C(C)C)ccc1Cl [Compound 102]	> 0.05		> 0.1	> 100	0.075
CC(C)(Cl)C(=Nc1ccc(C#N)c(Cl)c1)OCc1cccc(Oc2ccccc2)c1 [Compound 108]	> 0.01		> 0.1	44	0.002
CC(C)C(=Nc1c(F)cc(F)cc1Br)OCc1cccc(Oc2ccccc2)c1 [Compound 129]	0.01		> 0.1	> 100	0.005
CC(C)C(=Nc1ccc(Br)cc1)OCc1cccc(Oc2ccccc2)c1 [Compound 131]	0.005		> 0.1	17	0.0045
CC(C)(C)C(=Nc1ccc(Br)cc1)OCc1cccc(Oc2ccccc2)c1 [Compound 135]	> 0.05		> 0.1	> 100	0.004
CC(C)C(=Nc1ccc(I)cc1)OCc1cccc(Oc2ccccc2)c1 [Compound 137]	0.008		0.04	18	0.003

SMILES	LC50 LH [1] [%]	LC50 MW [2] [%]	LC50 TBW E [3] [%]	LC50 HF [4] [µg]	LC50 CL [5] [%]
CCc1cccc(N=C(OCc2cccc(Oc3ccccc3)c2)C(C)C)c1 [Compound 154]	> 0.05		0.1	25	0.004
CCc1ccc(N=C(OCc2cccc(Oc3ccc(F)cc3)c2)C(C)C)cc1 [Compound 159]	0.0025		0.08	25	0.001
CCc1ccc(N=C(OCc2cccc(Oc3ccccc3)c2)C(C)C)cc1 [Compound 161]	0.002		0.07	15	0.0014
CCc1cccc(N=C(OCc2cccc(Oc3ccccc3)c2)C(C)(C)C)c1 [Compound 162]	> 0.05		> 0.1	> 100	0.035
CC(C)C(=Nc1ccc2c(c1)CCC2)OCc1cccc(Oc2ccccc2)c1 [Compound 187]	0.0025		> 0.1	15	0.0025
CCCC(=Nc1ccc2c(c1)OCO2)OCc1cccc(Oc2ccccc2)c1 [Compound 188]	> 0.05		> 0.1	12	0.002
Cc1ccc(Oc2cccc(COC(=Nc3ccc(F)c(Cl)c3)C(C)C)c2)cc1 [Compound 225]	> 0.05		> 0.1	> 100	0.0025
CC(C)C(=Nc1ccc(C(C)C)cc1)OCc1cccc(Oc2ccc(F)cc2)c1 [Compound 228]	> 0.05		> 0.1	> 100	0.0025
CC(C)C(=Nc1ccc2c(c1)OC(C)(C)O2)OCc1ccc(F)c(Oc2ccccc2)c1 [Compound 242]	> 0.05		> 0.1	< 100	0.00025
CSc1ccc(Oc2cccc(COC(=Nc3ccc(F)cc3)C(C)C)c2)cc1 [Compound 257]	> 0.05		> 0.1	> 100	0.008
Fc1ccc(Oc2cccc(COC(=Nc3ccc(F)c(Cl)c3)C(F)(F)C(F)(F)F)c2)cc1 [Compound 258]	> 0.05		> 0.1	> 100	0.003
CC(C)C(=Nc1cccc([N+](=O)[O-])c1)OCc1cccc(Oc2ccc(Cl)cc2)c1 [Compound 271]	> 0.05		0.1	27	0.0004
CC(C)C(=Nc1cc(F)ccc1Cl)OCc1ccc(F)c(Oc2ccc(F)cc2)c1 [Compound 303]	0.0005		> 0.1	> 100	0.0015
CC(C)C(=Nc1ccc(Cl)cc1)OC(C)c1cccc(Oc2ccccc2)c1 (stereo not shown) [Compound 457]	> 0.05		> 0.05	> 100	0.009
CC(C)C(=Nc1ccc2c(c1)OCO2)OCc1cccc(Oc2ccc(F)cc2)n1 [Compound 465]	0.0025		0.027	8	0.0017
CC(C)C(=Nc1ccc(OC(F)(F)F)cc1)OCc1cccc(Cc2ccccc2)c1 [Compound 538]	> 0.05	> 0.01		75	> 0.1
CC(C)C(=Nc1cccc(C(F)(F)F)c1)OCC#CCOc1ccccc1 [Compound 548]	> 0.05		> 0.1	> 100	< 0.1
CC(C)C(=Nc1cccc(Br)c1)OCc1cccc(Oc2ccc(Cl)cc2)n1 [Compound 557]		> 0.01	> 0.1	< 100	0.0004
CC(C)C(=Nc1ccc(F)c(Br)c1)OCc1cccc(Oc2ccccc2)n1 [Compound 558]		> 0.01	> 0.1	< 100	0.00045
CC(C)C(=Nc1ccc(F)c(F)c1)OCc1cccc(Oc2ccc(Cl)cc2)n1 [Compound 559]		> 0.01	0.017	< 100	0.00027
C=C(C)C(=Nc1ccc(C(F)(F)F)cc1)OCc1cccc(Oc2ccc(Cl)cc2)n1 [Compound 560]		> 0.01	< 0.1	< 100	0.0015
